Molecules are shown by their SMILES. A value given as a limit tells only on which side of the number the result lay.

The target of experiment [1] is kainic acid (KA) receptor. Put plainly: Radioligand binding: tritiated kainate binding with washed synaptosomal membranes from the rat forebrain. The note with it: tritiated kainate 5 nM, pH 7.4, mean ± standard error (n = 3), values marked ^c single experiment. The procedure:
(§1) The formula I compounds were tested for their ability to inhibit NMDA, AMPA, and kainic acid receptor binding to rat membranes in a radioligand binding assay using [^3 H]CGS19755, [^3 H]AMPA, and [^3 H]KA. For all radioligand binding assays, male Sprague-Dawley rats were used. […] Non-specific binding was determined using 10 μM L-glutamate. Samples were incubated in an ice-bath for 30 minutes, and bound ligand was separated from the free ligand by rapid filtration through WHATMAN GF/B glass fiber filters. Murphy et al, British J. Pharmacol., 95, 932-938 (1988). Kainate binding was performed using washed synaptosomal membranes from the rat forebrain as described by Simon et al. Simon et al, J. Neurochem., 26, 141-147 (1976). Tritiated kainate (5 nM) was added to 50 mM Tris-HCl buffer (pH 7.4 at 4° C.) containing 200-300 μg/ml of tissue protein. Samples were incubated for 30 minutes in an ice-bath, then rapidly filtered using a Brandel cell harvester and WHATMAN GF/C filters. Filters were washed twice with 3 ml of cold buffer. Non-specific binding was determined using 100 μM non-labeled kainate. The binding of [^3 H]AMPA (5 nM) was conducted with crude membranes of rat forebrain in the presence of 100 mM KSCN as described by Nielson et al. Nielson et al, Eur. J. Med. Chem. Chim. Ther., 21, 433-437 (1986). Non-specific binding was determined with 10 μM non-labeled AMPA. The concentration of the formula I compound that inhibited 50% binding (IC50, mean ±standard error, n=3) as calculated by linear regression of displacement data transformed to the Hill equation as described by Bennett. Bennett, Neurotransmitter Receptor Binding, 57-90 (1978).

The target of experiment [2] is AMPA receptor. In words: Radioligand binding: [^3 H]AMPA binding with crude membranes of rat forebrain. The procedure:
as §1

Experiment [3] concerns the target NMDA receptor. Put plainly: Radioligand binding: displacement of [^3 H]CGS19755 from synaptosomal membranes of rat forebrain (NMDA receptor affinity). The conditions noted are these: [^3 H]CGS19755 10 nM, mean ± standard error (n = 3), values marked ^c single experiment. How it is done: as §1
Experiment [4] relates to NMDA receptor. In words: Antagonism of NMDA-induced depolarization of rat cortical wedges. Format: cell-based. The note with it: Table III; racemic; NMDA 40 μM; mean ± standard error (n = 3); read-out: IC50 NMDA, antagonism of cortical wedge depolarization. The procedure: (§2) The depolarization of rat cortical wedges was used to test the selectivity and potency of the formula I compounds as AMPA antagonists using a technique similar to that described by Harrison and Simmonds. Harrison and Simmonds, Bri. J. Pharmacol., 84, 381-391 (1984). Generally, 4-ml aliquots of NMDA (40 μM), AMPA (40 μM), and kainate (10 μM) were superfused (2 ml/min.) on the grey matter at intervals of 15-20 minutes until stable responses were attained. The tissue was then exposed for 15 minutes to various concentrations of the formula I compounds before retesting the agonists. The IC50 values were calculated from linear regression of log dose-response curves, each point the mean of at least three observations on separate slices from more than one animal.

Experiment [5] has as its target AMPA receptor. Put plainly: Antagonism of AMPA-induced depolarization of rat cortical wedges. It counts as cell-based. The conditions noted are these: Table III; racemic; AMPA 40 μM; mean ± standard error (n = 3); read-out: IC50 AMPA, antagonism of cortical wedge depolarization. How it is done:
as §2

Setting [6] is: Table II, enantiopure, [^3 H]AMPA 5 nM, 100 mM KSCN, mean ± standard error (n = 3), values marked ^c single experiment, read-out: IC50 AMPA, receptor binding.
Where [7] appears, read: Table I, racemic, [^3 H]AMPA 5 nM, 100 mM KSCN, mean ± standard error (n = 3), values marked ^c single experiment, read-out: IC50 AMPA, receptor binding.

With `O=C(O)[C@@H]1C[C@H]2C[C@@H](CS(=O)(=O)c3nc[nH]n3)CC[C@H]2CN1` [Compound 26, (3S,4aR,6S,8aR)-6-[(1(2-4)H-1,2,4-Triazole-5-yl)sulfonylmethyl]decahydroisoquinoline-3-carboxylic Acid], in experiment [1] (Table II, enantiopure), the “IC50 KA, receptor binding” value is greater than 100 µM. In addition, the IC50 in experiment [2] (setting [6]) is 0.63 µM; in experiment [3] (Table II, enantiopure), greater than 100 µM.
For `CS(=O)(=O)NC(=O)CC[C@H]1CC[C@H]2CN[C@H](C(=O)O)C[C@H]2C1` (relative stereo) [Compound 16, (3SR,4aRS,6RS,8aRS)-6-[2-((N-Methanesulfonyl)carboxamido)ethyl]decahydroisoquinoline-3-carboxylic Acid], the “IC50 KA, receptor binding” value in experiment [1] (Table I, racemic) was greater than 100 µM. In addition, the half-maximal inhibitory concentration (IC50) in experiment [2] (setting [7]) was 80 µM; in experiment [3] (Table I, racemic), greater than 100 µM.
For the compound `O=C(O)[C@@H]1C[C@H]2C[C@H](CCc3nn[nH]n3)CC[C@H]2CN1` (relative stereo) [Compound 2, (3SR,4aRS,6SR,8aRS)-6-[2-(1(2)H-Tetrazole-5-yl)ethyl]decahydroisoquinoline-3-carboxylic Acid], in experiment [1] (Table I, racemic), the “IC50 KA, receptor binding” value is 180.0 ± 22.1 µM. In addition, the half-inhibitory concentration (IC50) in experiment [4] is greater than 100 µM; in experiment [2] (setting [7]), 59.6 ± 4.3 µM; in experiment [3] (Table I, racemic) it was 60.6 ± 24.8 µM.
As to `CC(Cc1nn[nH]n1)[C@H]1CC[C@H]2CN[C@H](C(=O)O)C[C@H]2C1` (stereo partly drawn) [Compound 18, (3SR,4aRS,6RS,8aRS)-6-[2-(1(2)H-Tetrazole-5-yl)-1-methylethyl]decahydroisoquinoline-3-carboxylic Acid], the “IC50 KA, receptor binding” value in experiment [1] (Table I, racemic) turned out to be 28.2 µM. Further, the IC50 in experiment [2] (setting [7]) was 3.37 µM; in experiment [2] (text summary of Table I, racemic, read-out: selectively displaced ^3 H-AMPA with IC50 values), less than 15 µM; in experiment [3] (Table I, racemic), 43.1 µM.
`O=C(CC[C@H]1CC[C@H]2CN[C@H](C(=O)O)C[C@H]2C1)Nc1nn[nH]n1` (relative stereo) [Compound 17, (3SR,4aRS,6RS,8aRS)-6-[2-(N-(1(2)H-Tetrazole-5-yl)carboxamido)ethyl]decahydroisoquinoline-3-carboxylic Acid]: the “IC50 KA, receptor binding” value in experiment [1] (Table I, racemic) is greater than 100 µM. Moreover, the IC50 is 45.7 µM in experiment [2] (setting [7]) and greater than 100 µM in experiment [3] (Table I, racemic).
As for `O=C(O)[C@@H]1C[C@H]2C[C@@H](CCCCc3nnn[nH]3)CC[C@H]2CN1` (racemic) [Compound 10, (3SR,4aRS,6SR,8aRS)-6-[(1(2)H-Tetrazole-5-yl)but-1-yl]decahydroisoquinoline-3-carboxylic Acid], the “IC50 KA, receptor binding” value in experiment [1] (Table I, racemic) is greater than 100 µM. The IC50 was greater than 100 µM in experiment [4]; 27.6 ± 3.1 µM in experiment [5]; 32 µM in experiment [2] (setting [7]); greater than 100 µM in experiment [3] (Table I, racemic).
Consider `O=C(O)[C@H]1C[C@@H]2C[C@H](CS(=O)(=O)c3nc[nH]n3)CC[C@@H]2CN1` [Compound 27, (3R,4aS,6R,8aS)-6-[(1(2-4)H-1,2,4-Triazole-5-yl)sulfonylmethyl]decahydroisoquinoline-3-carboxylic Acid], for which the “IC50 KA, receptor binding” value in experiment [1] (Table II, enantiopure) is greater than 100 µM. For the same compound, the IC50 came to 23.6 µM in experiment [2] (setting [6]) and 60.9 µM in experiment [3] (Table II, enantiopure).
Regarding `O=CN(Cc1nnn[nH]1)[C@H]1CC[C@H]2CN[C@H](C(=O)O)C[C@@H]2C1` (racemic) [Compound 3, (3SR,4aRS,6SR,8aRS)-6-[N-(1(2)H-Tetrazole-5-yl)methylformamido]-decahydroisoquinoline-3-carboxylic Acid], the “IC50 KA, receptor binding” value in experiment [1] (Table I, racemic) was greater than 100 µM. Besides, the half-maximal inhibitory concentration (IC50) was 29.1 µM in experiment [2] (setting [7]) and greater than 100 µM in experiment [3] (Table I, racemic).
On to `O=C(O)[C@@H]1C[C@H]2C[C@@H](CCCc3nnn[nH]3)CC[C@H]2CN1` (racemic) [Compound 6, (3SR,4aRS,6SR,8aRS)-6-[(1(2)H-Tetrazole-5-yl)prop-1-yl]decahydroisoquinoline-3-carboxylic Acid], for which the “IC50 KA, receptor binding” value in experiment [1] (Table I, racemic) came to 18.65 ± 0.33 µM. For the same compound, the IC50 was 22 ± 3.8 µM in experiment [5]; 16.8 ± 0.46 µM in experiment [2] (setting [7]); 27 ± 9.9 µM in experiment [3] (Table I, racemic).

(Values after patent US5399696A, “Isoquinolinyl compounds which are intermediates” (Eli Lilly and Company, priority 1993, dated 1995).)
